Measurements reported in article PMC7114147 (Antiviral Research, 2013).
Values joined by “and” are separate entries in the source; they are usually repeats but may differ in a detail not shown here. Equal entries are not always repeated. Where two headings read alike, the source gives them in different places.

What was measured:
A/H1N1 (A/PR/8/34) = experiment: microbe, parasite or virus in culture; format: cell-based, influenza A virus; details: read-out: Antiviral EC50 A/H1N1 (A/PR/8/34)
A/H3N2 (A/HK/7/87) = experiment: microbe, parasite or virus in culture; format: cell-based
A/Ned/378/05 (A/H1N1) = experiment: microbe, parasite or virus in culture; format: cell-based; details: Influenza A virus, H1N1, MDCK, read-out: Antiviral activity (EC50) A/Ned/378/05
A/FM/1/47 (A/H1N1) = experiment: microbe, parasite or virus in culture; format: cell-based; details: Influenza A virus, H1N1, MDCK, read-out: Antiviral activity (EC50) A/FM/1/47
A/Ishikawa/7/82 (A/H3N2) = experiment: microbe, parasite or virus in culture; format: cell-based; details: Influenza A virus, read-out: Antiviral activity (EC50) A/Ishikawa/7/82
[1] = tested on: influenza virus A/PR/8/34; format: cell-based
endosomal pH = format: cell-based
MDCK cells = details: dog
A/Victoria/3/75 (A/H3N2) = experiment: microbe, parasite or virus in culture; format: cell-based; details: Influenza A virus, H3N2, read-out: EC50 A/Victoria/3/75
in vitro = details: dog, Cytotoxicity CC50
A/M2 wt channel = A/M2 wt channel (Influenza A virus, UniProt P0DOF5); experiment: biochemical; details: pH 5.5, read-out: Activity against A/M2 wt channel, Inhibition at 100 μM (%)
A/M2 wt channel, sequence (P0DOF5 whole entry, looked up): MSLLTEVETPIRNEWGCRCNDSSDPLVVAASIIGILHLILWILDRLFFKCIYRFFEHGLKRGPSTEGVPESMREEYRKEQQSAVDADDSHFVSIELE

[2] = Influenza A virus, H1N1|PR/8, MDCK
[3] = Influenza A virus, H3N2, MDCK, read-out: Antiviral EC50 A/H3N2 (A/HK/7/87)
[4] = Influenza A virus, H3N2, MDCK, read-out: Antiviral activity (EC50) A/HK/7/87

Row | SMILES | EC50 (A/H1N1 (A/PR/8/34); [2]) | EC50 (A/H3N2 (A/HK/7/87); [3]) | EC50 (A/H3N2 (A/HK/7/87); [4]) | EC50 (A/Ned/378/05 (A/H1N1)) | EC50 (A/FM/1/47 (A/H1N1)) | EC50 (A/Ishikawa/7/82 (A/H3N2)) | EC99 (2-log10 reduction in virus yield) [1] | Cytotoxicity (MCC) (MDCK cells) | also measured
1 | NC12CC3CC(CC(C3)C1)C2 [Amantadine, amantadine] | 53 µM | 3.4 µM | 3.4 ± 1.7 µM | 2 µM | 5.1 ± 2.4 µM | 11 ± 8 µM | 179 μM and 179 ± 53 μM | 500 µM | Effect on acridine orange staining pattern (endosomal pH; 500 μM): neither of the polycyclic amines tested
2 | C1=CC2C3C4C5C=CC4C24CNCC54C13 [Compound 3, 3-azahexacyclo[7.6.0.0^1,5.0^5,12.0^6,10.0^11,15]pentadeca-7,13-diene] | 14 µM | 16 µM | – | – | – | – | – | – | EC50 (A/H1N1 (A/PR/8/34)): 16 µM; EC50 (A/H3N2 (A/HK/7/87); read-out: Antiviral EC50 A/H3N2 (A/HK/7/87)): 14 µM; EC50 (A/Victoria/3/75 (A/H3N2)): > 100 µM; CC50 (in vitro): > 100 µM
3 | CCC(CC)O[C@@H]1C=C(C(=O)O)C[C@H](N)[C@H]1NC(C)=O [Oseltamivir carboxylate] | – | – | 29 ± 5 µM | 1.5 ± 0.8 µM | 16 ± 2 µM | 3 ± 1 µM | – | >100 µM | –
4 | NC(=O)c1ncn([C@@H]2O[C@H](CO)[C@@H](O)[C@H]2O)n1 [Ribavirin] | – | – | 8.6 ± 0.4 µM | 7.6 ± 1 µM | 10 ± 1 µM | 8.8 ± 0.3 µM | 11 ± 1 μM | >100 µM | –
5 | CC(N)C12CC3CC(CC(C3)C1)C2 (centres unmarked) [Rimantadine, rimantadine] | 4.6 µM | 0.17 µM | 0.17 ± 0.08 µM | 0.5 ± 0.22 µM | 1.9 ± 1.1 µM | 0.45 ± 0.15 µM | 48 μM and 48 ± 5 μM | >100 µM | inhibition at 100 µM (A/M2 wt channel): 91.4 ± 0.8%; Cytotoxicity MCC (minimum cytotoxic concentration) (MDCK cells): 500 µM; CC50 (in vitro): 230 µM
6 | CC(=O)N[C@H]1[C@H]([C@H](O)[C@H](O)CO)OC(C(=O)O)=C[C@@H]1N=C(N)N [Zanamivir] | – | – | 1.2 ± 0.9 µM | 1.7 ± 0.5 µM | 5 ± 1.6 µM | 8.7 ± 3.8 µM | – | >100 µM | –
7 | CO/C1=C\C(C)=C\[C@@H](C)[C@@H](O)[C@@H](C)C/C(C)=C/C=C/[C@H](OC)[C@@H]([C@@H](C)[C@@H](O)[C@H](C)[C@@]2(O)C[C@@H](O)[C@H](C)[C@@H](C(C)C)O2)OC1=O [bafilomycin A1] | – | – | – | – | – | – | – | – | Effect on acridine orange lysosomal red fluorescence (endosomal pH): completely inhibited
8 | CCN(CC)CCCC(C)Nc1ccnc2cc(Cl)ccc12 (centres unmarked) [chloroquine] | – | – | – | – | – | – | – | – | Effect on acridine orange lysosomal red fluorescence (endosomal pH): a decrease in lysosomal pH and a shift to yellow fluorescence
